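Five compound concentrations were applied to cells in 96-well plates for 48 hours; endpoints were derived by simple linear interpolation of the resulting dose-response curve. GI50 marks 50% less growth.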 The source made the active and inactive calls. Rule as the data show it: active = GI50 up to about 1.1 µM and inactive = higher.
Assays:
Assay in all cases: NCI-60 cell line screen, 48 h
[1] = tested on: A549
[2] = tested on: HCT-116
[3] = tested on: SK-MEL-2
[4] = tested on: MDA-MB-231
[5] = tested on: SR
[6] = tested on: RXF 393
[7] = tested on: MOLT-4
[8] = tested on: NCI-H460
[9] = tested on: SNB-19
[10] = tested on: RPMI-8226
[11] = tested on: HT-29
[12] = tested on: UACC-257
[13] = tested on: COLO 205
[14] = tested on: SW-620
[15] = tested on: CAKI-1
[16] = tested on: 786-0
[17] = tested on: Malme-3M
[18] = tested on: HCT-15
[19] = tested on: LOX IMVI
[20] = tested on: MDA-MB-435

| SMILES | GI50 [1] | GI50 [2] | GI50 [3] | GI50 [4] | GI50 [5] | GI50 [6] | GI50 [7] | GI50 [8] | GI50 [9] | GI50 [10] | GI50 [11] | GI50 [12] | GI50 [13] | GI50 [14] | GI50 [15] | GI50 [16] | GI50 [17] | GI50 [18] | GI50 [19] | GI50 [20] |
| --- | --- | --- | --- | --- | --- | --- | --- | --- | --- | --- | --- | --- | --- | --- | --- | --- | --- | --- | --- | --- |
| CCOC(=O)Nc1ccc2c(c1)c(CCCCCCc1nc3ccccc3c3ccc(NC(=O)OCC)cc13)nc1ccccc12 | 70 µM (inactive) | 54.3 µM (inactive) | 29.9 µM (inactive) | 30.5 µM (inactive) | > 100 µM (inactive) | 47.2 µM (inactive) | > 100 µM (inactive) | 61.9 µM (inactive) | 30.1 µM (inactive) | > 100 µM (inactive) | > 100 µM (inactive) | 47.2 µM (inactive) | > 100 µM (inactive) | > 100 µM (inactive) | 34.8 µM (inactive) | 18.4 µM (inactive) | > 10 µM (inactive) | > 100 µM | 21.6 µM (inactive) | 59.7 µM (inactive) |
| CC(C)(C)OC(=O)N1C(OP(=O)(Oc2ccccc2)Oc2ccccc2)=COc2cccnc21 | 46.6 µM (inactive) | 51.2 µM (inactive) | 22.3 µM (inactive) | 71 µM (inactive) | 27.3 µM (inactive) | 91.8 µM (inactive) | 17.7 µM (inactive) | 31.8 µM (inactive) | 78.9 µM (inactive) | 21.8 µM (inactive) | 82.6 µM (inactive) | 30 µM (inactive) | 34.8 µM (inactive) | 38.9 µM (inactive) | 40.3 µM (inactive) | 94.6 µM (inactive) | 30.6 µM (inactive) | 48.8 µM | 26.1 µM (inactive) | 39.4 µM (inactive) |
| Cc1cc(C)nc(NS(=O)(=O)c2ccc(NNC(=O)c3cccc4c(NNc5ccc(S(=O)(=O)Nc6nc(C)cc(C)n6)cc5)c5ccccc5nc34)cc2)n1 | 30.5 µM (inactive) | 22.9 µM (inactive) | 23.6 µM (inactive) | 14.6 µM (inactive) | 20.5 µM (inactive) | 20.8 µM (inactive) | 26 µM (inactive) | 20.6 µM (inactive) | 24.5 µM (inactive) | 25.6 µM (inactive) | 21.8 µM (inactive) | 31 µM (inactive) | 20.9 µM (inactive) | 22.1 µM (inactive) | 18.8 µM (inactive) | 21.8 µM (inactive) | 20.7 µM (inactive) | 19.7 µM | 17.2 µM (inactive) | 20.9 µM (inactive) |
| CC1=NN(c2ccc(C)cc2)C2(C1)SCC(=O)N2c1nc2ccccc2s1 (stereo not given) | 31.5 µM (inactive) | 17.8 µM (inactive) | 21.6 µM (inactive) | 15.5 µM (inactive) | 7.11 µM (inactive) | 13.3 µM (inactive) | 9.66 µM (inactive) | 13.4 µM (inactive) | 33.1 µM (inactive) | 17.7 µM (inactive) | 30.5 µM (inactive) | 19.5 µM (inactive) | 22.7 µM (inactive) | 24.3 µM (inactive) | 31 µM (inactive) | 20.1 µM (inactive) | 23.5 µM (inactive) | 20.5 µM | 19.6 µM (inactive) | 16.4 µM (inactive) |
| CCCCCCCCCCCCCC(=O)OC(/C=C/C(C)C)C(O)C(O)C(OC)C(=O)NC1CCCCNC1=O (stereo not given) | 0.257 µM (active) | 0.242 µM (active) | 2.65 µM (inactive) | 2.58 µM (inactive) | 0.097 µM (active) | 0.789 µM (active) | 0.57 µM (active) | 0.0906 µM (active) | 0.815 µM (active) | 2.79 µM (inactive) | 0.927 µM (active) | 2.84 µM (inactive) | 0.299 µM (active) | 0.372 µM (active) | 0.48 µM (active) | 0.308 µM (active) | 2.02 µM (inactive) | 1.43 µM | 0.408 µM (active) | 5.97 µM (inactive) |
| CC(C)C(C)/C=C\C(C)C1CCC2C3=CC=C4CC(O)CCC4(C)C3CCC21C (stereo not given) | > 100 µM (inactive) | 39.8 µM (inactive) | > 62.1 µM (inactive) | > 40.6 µM (inactive) | 34.4 µM (inactive) | > 42.5 µM (inactive) | 17.7 µM (inactive) | > 36.1 µM (inactive) | > 74.5 µM (inactive) | 29.3 µM (inactive) | 33.3 µM (inactive) | > 76.9 µM (inactive) | 43.9 µM (inactive) | > 49.3 µM (inactive) | > 43.7 µM (inactive) | > 43.2 µM (inactive) | > 34.7 µM (inactive) | > 42.8 µM | > 42.7 µM (inactive) | 41.1 µM (inactive) |
| Cc1nc(-c2cc3c(ccc4ccccc43)oc2=O)cs1 | > 100 µM (inactive) | > 100 µM (inactive) | > 100 µM (inactive) | 70.5 µM (inactive) | > 100 µM (inactive) | 35.8 µM (inactive) | > 100 µM (inactive) | 91.8 µM (inactive) | 33.2 µM (inactive) | > 100 µM (inactive) | > 100 µM (inactive) | > 100 µM (inactive) | > 100 µM (inactive) | > 100 µM (inactive) | > 100 µM (inactive) | 39.1 µM (inactive) | 76.2 µM (inactive) | > 100 µM | > 100 µM (inactive) | > 100 µM (inactive) |
| O=C1C(Cl)=C(Nc2ccc(S(=O)(=O)O)cc2)C(=O)c2ccccc21 | 21.9 µM (inactive) | 52.6 µM (inactive) | 23.7 µM (inactive) | 60.7 µM (inactive) | 32.6 µM (inactive) | 19.7 µM (inactive) | 42.1 µM (inactive) | 33.6 µM (inactive) | 24.6 µM (inactive) | 24.7 µM (inactive) | > 100 µM (inactive) | 40 µM (inactive) | 17.4 µM (inactive) | 22 µM (inactive) | 39.5 µM (inactive) | 27.2 µM (inactive) | 20.1 µM (inactive) | 35.2 µM | 30.3 µM (inactive) | 21.7 µM (inactive) |
| O=C(N1CCN(c2ccccc2)CC1)N(C(=O)C1(c2ccc(Cl)cc2)CCCC1)S(=O)(=O)c1ccccc1 | 36.2 µM (inactive) | 22.5 µM (inactive) | 19.9 µM (inactive) | 26.6 µM (inactive) | 53.2 µM (inactive) | 42.2 µM (inactive) | 23.3 µM (inactive) | 30.5 µM (inactive) | 28.1 µM (inactive) | 38.3 µM (inactive) | 27.9 µM (inactive) | 28.3 µM (inactive) | 24.7 µM (inactive) | 32 µM (inactive) | 26.5 µM (inactive) | 34.5 µM (inactive) | 26.4 µM (inactive) | 25.1 µM | 21.3 µM (inactive) | 43.8 µM (inactive) |
| CC(C)c1c(O[Si](C(C)C)(C(C)C)C(C)C)c2c3c(ccc4c3c1OC4(C)C)C(C)CC2 (stereo not given) | > 100 µM (inactive) | > 100 µM (inactive) | > 100 µM (inactive) | > 100 µM (inactive) | > 100 µM (inactive) | > 100 µM (inactive) | > 100 µM (inactive) | > 100 µM (inactive) | > 100 µM (inactive) | > 100 µM (inactive) | > 100 µM (inactive) | > 100 µM (inactive) | > 100 µM (inactive) | > 100 µM (inactive) | > 100 µM (inactive) | > 100 µM (inactive) | > 100 µM (inactive) | > 100 µM | > 100 µM (inactive) | > 100 µM (inactive) |
| CC(C)(C)c1cc2c(OC/C=C/c3ccccc3)c(c1)Cc1cc(C(C#N)(OC/C=C/c3ccccc3)OC/C=C/c3ccccc3)cc(c1OC/C=C\c1ccccc1)Cc1cc(C(C)(C)C)cc(c1OC/C=C/c1ccccc1)Cc1cc(C(C#N)(OC/C=C\c3ccccc3)OC/C=C/c3ccccc3)cc(c1OC/C=C\c1ccccc1)C2 (stereo not given) | > 100 µM (inactive) | > 100 µM (inactive) | > 100 µM (inactive) | 30.4 µM (inactive) | 20.7 µM (inactive) | > 100 µM (inactive) | > 100 µM (inactive) | > 100 µM (inactive) | > 100 µM (inactive) | > 100 µM (inactive) | > 100 µM (inactive) | > 100 µM (inactive) | > 100 µM (inactive) | > 100 µM (inactive) | > 100 µM (inactive) | > 100 µM (inactive) | 83.4 µM (inactive) | > 100 µM | 30.1 µM (inactive) | > 100 µM (inactive) |
| Cc1ncc([N+](=O)[O-])n1CCNC(=O)CCCn1cnc([N+](=O)[O-])n1 | > 78.3 µM (inactive) | > 100 µM (inactive) | > 90.8 µM (inactive) | > 100 µM (inactive) | > 100 µM (inactive) | > 100 µM (inactive) | > 100 µM (inactive) | > 100 µM (inactive) | > 100 µM (inactive) | > 100 µM (inactive) | > 100 µM (inactive) | > 100 µM (inactive) | > 100 µM (inactive) | > 71.8 µM (inactive) | > 100 µM (inactive) | > 100 µM (inactive) | > 100 µM (inactive) | > 76.6 µM | > 100 µM (inactive) | > 100 µM (inactive) |
| Oc1cc2c3c(c1)c1cc4c(cc1c[n+]3CC2)OCO4 | 5.71 µM (inactive) | 1.55 µM (inactive) | 9.68 µM (inactive) | 2.79 µM (inactive) | 0.671 µM (active) | 24.5 µM (inactive) | 0.242 µM (active) | 2.43 µM (inactive) | 1.8 µM (inactive) | 1.77 µM (inactive) | 4.6 µM (inactive) | 8.83 µM (inactive) | 3.73 µM (inactive) | 2.86 µM (inactive) | 10.2 µM (inactive) | 1.08 µM (active) | 1.16 µM (inactive) | 13.6 µM | 1.63 µM (inactive) | 5.5 µM (inactive) |
| COC(=O)/C=C\C(C#N)(C#N)/N=C/c1ccc(Br)cc1 | 2.77 µM (inactive) | 2.57 µM (inactive) | 19.3 µM (inactive) | 4.08 µM (inactive) | 5.42 µM (inactive) | 4.92 µM (inactive) | 0.673 µM (active) | 19.6 µM (inactive) | 2.74 µM (inactive) | 2.38 µM (inactive) | 2.58 µM (inactive) | 14.8 µM (inactive) | 3.37 µM (inactive) | 2.76 µM (inactive) | 2.66 µM (inactive) | 1.02 µM (active) | 3.24 µM (inactive) | 2.94 µM | 1.85 µM (inactive) | 7 µM (inactive) |

Source: ChEMBL document CHEMBL1201862, “PubChem BioAssay data set” (2004)
